Here are results for nine compounds from PMC3753236, “Glucocorticosteroids in Nano-Sterically Stabilized Liposomes Are Efficacious for Elimination of the Acute Symptoms of Experimental Cerebral Malaria” (PLoS ONE, 2013).

For orientation: IC50 means the concentration needed to halve the response being measured.

Data set [1] concerns non-chloroquine resistant P. falciparum. Nature of the data set: P. falciparum culture, 3H-hypoxanthine incorporation. The class given is cell-based, Plasmodium falciparum. As to conditions: Plasmodium falciparum. As to the method: The parasite was grown in a human red blood cell culture (RPMI 1640, 7.5% bicarbonate, 50 µM hypoxanthine, 50 µg/ml gentamycin, and 7.5% human plasma) at 1% hematocrit and 2% parasitemia. Cultures containing predominantly ring forms were used; synchronization of the culture was performed if trophozoites represented more than 1–2% of the various developmental stages. Briefly, the culture was centrifuged and the supernatant replaced by 5% (isotonic) sorbitol. After 5 minutes at 37°C the culture was centrifuged again and the supernatant replaced by culture medium to obtain a final 1% hematocrit.
Drug testing was performed in 96-well microtiter plates incubated at 37°C in a 5% O2, 5% CO2, and 90% N2 gas mixture for 72 hours. After 48 hours, 1 µCi ^3H-hypoxanthine was added to each well and the plates were read the next day using a scintillation counter.

Data set [2] relates to Plasmodium berghei ANKA (PbAus). Put plainly: Late-stage treatment of ECM followed by artemisone, PbAus-infected C57Bl/6 mice. The procedure: (§1) Plasmodium berghei ANKA (PbA; PbA MRA-311, CDC, Atlanta, GA, USA) was maintained in vivo by serial transfer of parasitized erythrocytes (PE) from infected to naïve mice. Experiments were also performed using a second strain of PbA, similarly maintained, and designated PbAus in the text (courtesy of Prof. G. Grau, University of Sydney, Australia).
(§2) Parasitemia was monitored by thin blood smears prepared from tail blood. These were stained with a 25% Giemsa solution, examined under a light microscope, and parasitemia determined as the percent of infected red blood cells per 10,000 erythrocytes. Disease severity was determined according to scoring of neurological symptoms and changes in weight and temperature, as previously described […] Parasitemias above 20% and the absence of neurological symptoms indicated severe anemic malaria.
(§3) For early ECM treatment, injections were given on days 3, 5, 7, and 9 p.i; for late treatment, treatment was given every other day, starting on day 5 p.i. for a total of at least two injections. Infected, non-treated control mice were injected with 5% dextrose or empty nSSL. Clinical signs and parasitemias were monitored and disease severity scored as described […] At each time-point, at least 3 mice from each group were chosen at random, deeply anesthetized, and brains were removed following intracardial perfusion (using saline, if organs were destined for real-time (rt)PCR analysis, or saline/formalin, if organs were destined for histopathological analysis). Organs destined for rtPCR analysis were snap-frozen in liquid nitrogen and stored at −80°C until use. Organs destined for immunohistology were immediately immersed in cryoprotectant solution (see below).

Data set [3] has the same test system. Nature of the data set: Early treatment of ECM, PbAus-inoculated C57Bl/6 mice (with sequential artemisone). As to the method:
as §1, §2, §3

Data set [4] concerns Plasmodium berghei ANKA (PbA). Nature of the data set: Early treatment of experimental cerebral malaria (ECM), ICR mice infected with PbA. As to the method:
as §1, §2
as §3, with “described […] Surviving mice were treated with 2×10 mg/kg/d artemisone by intraperitoneal injection in order to achieve cure; mice were monitored for four weeks post-artemisone treatment in order to allow detection of possible late recrudescence.” for “described”

The conditions of data set [5]: cited from earlier work.
The test system of a further data set is ECM. The arrangement: method as in Clemmer et al. [28]. The conditions noted are these: after the appearance of clinical signs of neuropathology; ref Clemmer et al. [28]; cited from earlier work.
The mark [6] stands for this setting: 72 h culture, 3H-hypoxanthine, read-out: IC50.

Structures are written as SMILES. Counter-ions that a name gives are not always drawn. Like-named read-outs stand apart in the source and are kept apart here. Bounds are passed on as bounds.

As for `C[C@@H]1CC[C@H]2[C@@H](C)C(=O)O[C@@H]3O[C@@]4(C)CC[C@@H]1[C@]32OO4` [Artemisinin], in data set [1] (setting [6]), the IC50 stood at 0.13 nM.

On to `C[C@H]1[C@H](N2CCS(=O)(=O)CC2)O[C@@H]2O[C@@]3(C)CC[C@H]4[C@H](C)CC[C@@H]1[C@@]24OO3` [Artemisone, reference compound], for which the “Outcome of artemisone after nSSL-BMS started day 5 p.i.” value in data set [2] (2×20 mg/kg/d artemisone on days 11–15 p.i., monitored three weeks) was “complete cure”. Also, the “Outcome of artemisone after nSSL-BMS started day 7 p.i.” value in data set [2] (all remaining mice died of severe anemic malaria) is “ineffective”. Besides, the “Outcome of artemisone after nSSL-BMS started day 6 p.i.” value in data set [2] (subsequent artemisone administration) was “cure in all mice”. In data set [1] (setting [6]), the half-inhibitory concentration (IC50) was determined as 0.4 nM. Also, the “Outcome of artemisone treatment following nSSL-BMS” value in data set [3] (2×20 mg/kg artemisone i.p. days 11–15 p.i. after early 10 mg/kg nSSL-BMS, monitored four weeks for recrudescence) is “complete cure”. The “Time to zero parasitemia after the first injection (majority of cases)” value in data set [3] (2×20 mg/kg artemisone i.p. days 11–15 p.i. following early 10 mg/kg nSSL-BMS) is recorded as not above 24 h. Further, the “Mice that relapsed and died of ECM (of the total 17 administered artemisone)” value in data set [3] (2×20 mg/kg/d artemisone days 11–15 p.i. after 10 mg/kg free or nSSL-BMS) is “One”. For the same compound, the “Outcome of artemisone monotherapy” value in data set [3] (beginning on day 11 p.i.) is “ineffective”.

For the compound `CCN(CC)CCCC(C)Nc1ccnc2cc(Cl)ccc12` (stereo not shown) [Chloroquine, chloroquine], it took 40 nM to reach half-maximal inhibition in data set [1] (IC50).

Consider `C[C@H]1[C@@H](O)O[C@@H]2O[C@@]3(C)CC[C@H]4[C@H](C)CC[C@@H]1[C@@]24OO3` [Dihydroartemisinin, dihydroartemisinin], for which, in data set [1] (setting [6]), the IC50 was 0.1 nM.

On to `C[C@H]1C[C@@H]2[C@H]([C@@H](O)C[C@@]3(C)[C@H]2CC[C@]3(O)C(=O)COC(=O)CCC(=O)O)[C@@]2(C)C=CC(=O)C=C12` [MPS, methylprednisolone hemisuccinate sodium salt], for which the “Survival rate on day 11” value in data set [4] (10 mg/kg/d on days 3, 5, 7, 9 p.i.) was determined as 33%. Moreover, in data set [4] (25 mg/kg/d, preliminary experiments), the “Toxicity in ECM mice” value was “mild toxicity”. In addition, the “Potency relative to hydrocortisone” value in data set [5] (ref [14]) is reported as approximately 5 times. Moreover, the IC50 in data set [1] (setting [6]) was found to be 14000 nM.

For `C=C[C@H]1C[N@@]2CC[C@H]1C[C@H]2[C@H](O)c1ccnc2ccc(OC)cc12` [Quinine, quinine], the IC50 in data set [1] (setting [6]) worked out at 380 nM.

Regarding `CO[C@H]1O[C@@H]2O[C@@]3(C)CC[C@H]4[C@H](C)CC[C@@H]([C@H]1C)[C@@]24OO3` [artemether], the “Success rate of ECM rescue therapy” value in the data set on ECM is on record as 43–46%.

In the case of `C[C@H]1[C@H](OC(=O)CCC(=O)O)O[C@@H]2O[C@@]3(C)CC[C@H]4[C@H](C)CC[C@@H]1[C@@]24OO3` [artesunate], the “Success rate of ECM rescue therapy” value with ECM is reported as 43–46%.

Take `C[C@H]1C[C@H]2[C@@H]3CCC4=CC(=O)C=C[C@]4(C)[C@@]3(F)[C@@H](O)C[C@]2(C)[C@@]1(O)C(=O)CO` [β-methasone]: the “Potency relative to hydrocortisone” value in data set [5] (ref [15]) is reported as 25–30 fold.
